Results published in patent US20100056637A1, “TREATMENT METHODS USING TRIARYL METHANE COMPOUNDS” (Icagen, Inc., priority 2005, published 2010).
Where two headings read alike, the source gives them in different places.

Key:
[1] = Inhaled allergen challenge in human subjects, placebo vs Senicapoc, 13 days; assay type: in vivo; details: for fraction of exhaled nitric oxide: after 13 days of treatment, no change in placebo group
Description: FIG. 9. FIG. 9A study design. […] FIG. 9B. Change in FEV1 over time past allergen challenge (AC) in human subjects. The late allergen response (LAR) is the decline in FEV1 4 to 10 hours after patients were challenged with an inhaled allergen. The magnitude of the decline in LAR is quantified as the area bounded by the baseline FEV1 (0%), and the actual FEV1 measurements between hours 4 and 10. Subjects randomized to 13 days of treatment with placebo had no change in the LAR (left panel). […] By analysis of co-variance, the difference in LAR at Day 13 between the two treatment groups was 29%.
By analysis of co-variance, the difference in late airway responsiveness between the two treatment groups was 29% (see, FIG. 9B). In addition, the fraction of nitric oxide exhaled by Senicapoc-treated group declined with no change seen in the placebo group (data not shown).

[2] = Pharmacokinetics of Senicapoc in sheep plasma; assay type: in vivo; details: 30 mg/kg po b.i.d.; relative to levels required to block KCa3.1
Description: Since statistically significant effects were observed on lung resistance and airway hyper-reactivity following the 30 mg/kg dose, this level of exposure is sufficient to achieve efficacy in the sheep model. FIG. 7 illustrates exposure in man following administration of a range of doses. The average efficacious plasma level from the sheep model is illustrated by the dashed line.

A. suum sensitized sheep = test: Ascaris suum allergen challenge model of asthma in sheep; assay type: in vivo
Description: Briefly, baseline lung resistance (RL) and carbachol concentration response curves were obtained prior to A. suum challenge in sheep. […] Lung resistance was subsequently measured at 0, 1, 2, 3, and 4 hours post allergen challenge to assess early airway responses and at 5, 6, 6.5, 7, 7.5 and 8 hours to assess late airway responses. At 24 hours post challenge, airway hyper-reactivity was determined based on responses to increasing doses of carbachol. Data were analyzed by a one way ANOVA followed by Dunnett's post hoc test when more than 2 groups were compared, or by a t-test when only 2 groups were compared.

[3] = cited from earlier work; for mean Cmax / mean total systemic dose / oral clearance rate / terminal half-life: patients with sickle cell disease
[4] = test system: human lung mast cells (HLMC); test: HLMC chemotaxis (mast cell migration) assay, Transwell system; assay type: cell-based; details: airway smooth muscle-conditioned media; 10, 100, 1000 nM; 3 hours
Description: Mast cell migration studies were then performed by a method similar to as described in the method of Cruse et al. (Thorax. 2006 61:880-5). Briefly, HLMC chemotaxis assays were performed using the Transwell system with 24 wells. Airway smooth muscle-conditioned media was placed in the lower wells. […] After incubating the cells for 3 hours at 37° C., the number of HLMC in the bottom well were counted using Kimura stain in a hemocytometer. HLMC migration was calculated as the fold increase of migrated cells in the test wells compared with the negative control containing no chemoattractant in the lower well (FIG. 1).

Half-life in blood = assay type: in vitro ADME; details: including human blood
Text: Triphenylacetamide-based K^+-channel blockers are promising candidates for the treatment of sickle cell disease (SCD) as discussed in U.S. Pat. No. 6,288,122 which is herein incorporated by reference. In addition, studies indicate that triphenylacetamide-based inhibitors are potential candidate drugs for the treatment of inflammatory conditions.

recombinant human KCa3.1 = recombinant human KCa3.1 (Homo sapiens, UniProt O15554); test: Whole patch clamp of potassium currents in CHO cells stably expressing recombinant human KCa3.1; assay type: cell-based; details: 1000 nM Senicapoc; FIG. 2 right panel; cell type not stated

NC(=O)C(c1ccccc1)(c1ccc(F)cc1)c1ccc(F)cc1 [Senicapoc, 2,2-bis(4-fluorophenyl)-2-phenylacetamide]
difference in late airway responsiveness (LAR, FEV1 decline 4 to 10 hours) between Senicapoc and placebo groups ([1]; Day 13, 80 mg BID for three days, then 40 mg daily, analysis of co-variance): 29%
fraction of exhaled nitric oxide [1]: declined
fraction of exhaled nitric oxide ([1]; listed as senicapoc): decreased
plasma exposure corrected for protein binding [2]: sustained levels significantly above those required to block KCa3.1
reversal of the hyper-reactivity to carbachol (A. suum sensitized sheep; 30 mg/kg PO for 4 days): Complete reversal
apparent reduction in peak early response (A. suum sensitized sheep; 30 mg/kg PO, not statistically significant): 33%
average late allergen responses (lung resistance) (A. suum sensitized sheep; 5-8 hours after allergen challenge, oral, IV and inhalation routes): significantly attenuates
hyper-reactivity to aerosolized carbachol (A. suum sensitized sheep; 24 hours post A. suum challenge, all three routes of administration): significantly reduced
reversal of the hyper-reactivity to carbachol (A. suum sensitized sheep; acute 10 mg/kg IV dosing): Complete reversal
peak early airway responses (A. suum sensitized sheep; immediately after allergen challenge, 10 mg/kg IV): significantly reduced
mean elimination half-life ([3]; oral dose, across three clinical studies, 68 patients): 12 to 17 days
mean Cmax ([3]; 50 mg single dose): 59.1 ng/mL
mean total systemic dose ([3]; 50 mg single dose): 11,826 ng·hr/ml
oral clearance rate ([3]; 50 mg single dose): 4.75 L/h
terminal half-life ([3]; 50 mg single dose): 15.4 days
mean Cmax ([3]; 100 mg single dose): 108.7 ng/mL
mean total systemic dose ([3]; 100 mg single dose): 19,696 ng·hr/ml
oral clearance rate ([3]; 100 mg single dose): 6.1 L/h
terminal half-life ([3]; 100 mg single dose): 9.12 days
mean Cmax ([3]; 150 mg single dose): 109.1 ng/mL
mean total systemic dose ([3]; 150 mg single dose): 30,675 ng·hr/ml
oral clearance rate ([3]; 150 mg single dose): 5.8 L/h
terminal half-life ([3]; 150 mg single dose): 12.4 days
drug-related serious adverse events ([3]; phase I clinical studies): no drug-related serious adverse events
HLMC migration resulting from inflammatory stimuli [4]: inhibits
half-life in blood (Half-life in blood): long half-life
channel inhibition with varied voltage (recombinant human KCa3.1): nearly complete channel inhibition
